Results reported in ChEMBL document CHEMBL1201862, “PubChem BioAssay data set” (2004).
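The compound was tested at five concentrations on cells cultured in 96-well plates, with a 48-hour exposure period. Abbreviation: GI50, concentration required for 50% inhibition of growth.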 Calls of active or inactive are those of the source. Rule as the data show it: active = GI50 up to about 1.1 µM and inactive = higher.

Columns and labels:
Experiment in all cases: NCI-60 cell line screen, 48 h
786-0 = system: 786-0
A498 = system: A498
A549 = system: A549
ACHN = system: ACHN
BT-549 = system: BT-549
CAKI-1 = system: CAKI-1
CCRF-CEM = system: CCRF-CEM
COLO 205 = system: COLO 205
DU-145 = system: DU-145
EKVX = system: EKVX
HCC 2998 = system: HCC 2998
HCT-116 = system: HCT-116
HCT-15 = system: HCT-15
HL-60 = system: HL-60
HOP-62 = system: HOP-62
HOP-92 = system: HOP-92
HT-29 = system: HT-29
Hs-578T = system: Hs-578T
IGROV-1 = system: IGROV-1
K562 = system: K562
KM12 = system: KM12
LOX IMVI = system: LOX IMVI
M14 = system: M14
MCF7 = system: MCF7
MDA-MB-231 = system: MDA-MB-231
MDA-MB-435 = system: MDA-MB-435
MDA-N = system: MDA-N
MOLT-4 = system: MOLT-4
Malme-3M = system: Malme-3M
NCI-H226 = system: NCI-H226
NCI-H23 = system: NCI-H23
NCI-H460 = system: NCI-H460
NCI-H522 = system: NCI-H522
NCI/ADR-RES = system: NCI/ADR-RES
OVCAR-3 = system: OVCAR-3
OVCAR-4 = system: OVCAR-4
OVCAR-5 = system: OVCAR-5
OVCAR-8 = system: OVCAR-8
PC-3 = system: PC-3
RPMI-8226 = system: RPMI-8226
RXF 393 = system: RXF 393
SF-268 = system: SF-268
SF-295 = system: SF-295
SF-539 = system: SF-539
SK-MEL-28 = system: SK-MEL-28
SK-MEL-2 = system: SK-MEL-2
SK-MEL-5 = system: SK-MEL-5
SK-OV-3 = system: SK-OV-3
SN12C = system: SN12C
SNB-19 = system: SNB-19
SNB-75 = system: SNB-75
SR = system: SR
SW-620 = system: SW-620
T47D = system: T47D
TK-10 = system: TK-10
U-251 = system: U-251
UACC-257 = system: UACC-257
UACC-62 = system: UACC-62
UO-31 = system: UO-31

SMILES: COCC(=O)OC1CCn2c1nc1c2C(=O)C(C)=C(NC(C)=O)C1=N (stereo not given)
- GI50 (786-0): 3.03 µM (inactive)
- GI50 (A498): 18.5 µM (inactive)
- GI50 (A549): 21.3 µM (inactive)
- GI50 (ACHN): 7.71 µM (inactive)
- GI50 (BT-549): 0.993 µM (active)
- GI50 (CAKI-1): 11.2 µM (inactive)
- GI50 (CCRF-CEM): 2.1 µM (inactive)
- GI50 (COLO 205): 12.5 µM (inactive)
- GI50 (DU-145): 20.4 µM (inactive)
- GI50 (EKVX): 12.3 µM (inactive)
- GI50 (HCC 2998): 13.7 µM (inactive)
- GI50 (HCT-116): 3.08 µM (inactive)
- GI50 (HCT-15): 8.13 µM
- GI50 (HL-60): 2.9 µM (inactive)
- GI50 (HOP-62): 15.6 µM (inactive)
- GI50 (HOP-92): 3.57 µM (inactive)
- GI50 (HT-29): 4.21 µM (inactive)
- GI50 (Hs-578T): 4.1 µM (inactive)
- GI50 (IGROV-1): 10.8 µM (inactive)
- GI50 (K562): 2.63 µM (inactive)
- GI50 (KM12): 14.2 µM (inactive)
- GI50 (LOX IMVI): 2.53 µM (inactive)
- GI50 (M14): 4.95 µM (inactive)
- GI50 (MCF7): 1.69 µM (inactive)
- GI50 (MDA-MB-231): 3.27 µM (inactive)
- GI50 (MDA-MB-435): 1.66 µM (inactive)
- GI50 (MDA-N): 1.82 µM (inactive)
- GI50 (MOLT-4): 2.34 µM (inactive)
- GI50 (Malme-3M): 1.38 µM (inactive)
- GI50 (NCI-H226): 18.5 µM (inactive)
- GI50 (NCI-H23): 4.34 µM (inactive)
- GI50 (NCI-H460): 14 µM (inactive)
- GI50 (NCI-H522): 5.01 µM (inactive)
- GI50 (NCI/ADR-RES): 3.99 µM (inactive)
- GI50 (OVCAR-3): 2.03 µM (inactive)
- GI50 (OVCAR-4): 2.19 µM (inactive)
- GI50 (OVCAR-5): 9.91 µM (inactive)
- GI50 (OVCAR-8): 2.56 µM (inactive)
- GI50 (PC-3): 2.58 µM (inactive)
- GI50 (RPMI-8226): 2.27 µM (inactive)
- GI50 (RXF 393): 2.16 µM (inactive)
- GI50 (SF-268): 5.19 µM (inactive)
- GI50 (SF-295): 16.1 µM (inactive)
- GI50 (SF-539): 2.07 µM (inactive)
- GI50 (SK-MEL-28): 4.59 µM (inactive)
- GI50 (SK-MEL-2): 2.15 µM (inactive)
- GI50 (SK-MEL-5): 2.42 µM (inactive)
- GI50 (SK-OV-3): 17.7 µM (inactive)
- GI50 (SN12C): 3.72 µM (inactive)
- GI50 (SNB-19): 17.9 µM (inactive)
- GI50 (SNB-75): 15.3 µM (inactive)
- GI50 (SR): 2.64 µM (inactive)
- GI50 (SW-620): 2.49 µM (inactive)
- GI50 (T47D): 1.95 µM (inactive)
- GI50 (TK-10): 15.6 µM (inactive)
- GI50 (U-251): 5.38 µM (inactive)
- GI50 (UACC-257): 2.43 µM (inactive)
- GI50 (UACC-62): 1.66 µM (inactive)
- GI50 (UO-31): 11.6 µM (inactive)

SMILES: O=C(CCc1ccc(O)c(O)c1)NCCc1ccc(O)c(O)c1
- GI50 (786-0): 18.6 µM (inactive)
- GI50 (A498): > 100 µM (inactive)
- GI50 (A549): > 100 µM (inactive)
- GI50 (ACHN): > 100 µM (inactive)
- GI50 (BT-549): > 100 µM (inactive)
- GI50 (CCRF-CEM): 27.9 µM (inactive)
- GI50 (COLO 205): > 100 µM (inactive)
- GI50 (DU-145): > 100 µM (inactive)
- GI50 (EKVX): > 100 µM (inactive)
- GI50 (HCC 2998): > 100 µM (inactive)
- GI50 (HCT-116): 42.8 µM (inactive)
- GI50 (HCT-15): > 100 µM
- GI50 (HL-60): 26.8 µM (inactive)
- GI50 (HOP-62): > 100 µM (inactive)
- GI50 (HOP-92): > 100 µM (inactive)
- GI50 (HT-29): > 100 µM (inactive)
- GI50 (Hs-578T): > 100 µM (inactive)
- GI50 (IGROV-1): > 100 µM (inactive)
- GI50 (K562): 31.7 µM (inactive)
- GI50 (KM12): > 100 µM (inactive)
- GI50 (LOX IMVI): 39.7 µM (inactive)
- GI50 (M14): > 100 µM (inactive)
- GI50 (MCF7): 27.8 µM (inactive)
- GI50 (MDA-MB-231): 25.6 µM (inactive)
- GI50 (MDA-MB-435): 17.9 µM (inactive)
- GI50 (MDA-N): 18.1 µM (inactive)
- GI50 (MOLT-4): 57.7 µM (inactive)
- GI50 (Malme-3M): > 100 µM (inactive)
- GI50 (NCI-H226): > 100 µM (inactive)
- GI50 (NCI-H23): > 100 µM (inactive)
- GI50 (NCI-H460): > 100 µM (inactive)
- GI50 (NCI-H522): > 100 µM (inactive)
- GI50 (NCI/ADR-RES): > 100 µM (inactive)
- GI50 (OVCAR-3): 94.2 µM (inactive)
- GI50 (OVCAR-4): 18.5 µM (inactive)
- GI50 (OVCAR-5): > 100 µM (inactive)
- GI50 (OVCAR-8): 18.3 µM (inactive)
- GI50 (PC-3): > 100 µM (inactive)
- GI50 (RPMI-8226): > 100 µM (inactive)
- GI50 (RXF 393): > 100 µM (inactive)
- GI50 (SF-268): > 100 µM (inactive)
- GI50 (SF-295): > 100 µM (inactive)
- GI50 (SF-539): > 100 µM (inactive)
- GI50 (SK-MEL-28): > 100 µM (inactive)
- GI50 (SK-MEL-2): 83.9 µM (inactive)
- GI50 (SK-MEL-5): > 100 µM (inactive)
- GI50 (SK-OV-3): > 100 µM (inactive)
- GI50 (SN12C): 37.1 µM (inactive)
- GI50 (SNB-19): > 100 µM (inactive)
- GI50 (SNB-75): > 100 µM (inactive)
- GI50 (SR): 23.9 µM (inactive)
- GI50 (SW-620): 67.6 µM (inactive)
- GI50 (T47D): > 100 µM (inactive)
- GI50 (TK-10): > 100 µM (inactive)
- GI50 (U-251): 17.3 µM (inactive)
- GI50 (UACC-257): > 100 µM (inactive)
- GI50 (UACC-62): > 100 µM (inactive)
- GI50 (UO-31): > 100 µM (inactive)

SMILES: Oc1ccc(SCc2ccc(NCc3ccccc3)cc2)cc1
- GI50 (786-0): 0.869 µM (active)
- GI50 (A498): 20.1 µM (inactive)
- GI50 (A549): 22.1 µM (inactive)
- GI50 (ACHN): 24 µM (inactive)
- GI50 (BT-549): 31.8 µM (inactive)
- GI50 (CAKI-1): 19.6 µM (inactive)
- GI50 (CCRF-CEM): 1.24 µM (inactive)
- GI50 (COLO 205): 35.4 µM (inactive)
- GI50 (DU-145): 32 µM (inactive)
- GI50 (EKVX): 19.4 µM (inactive)
- GI50 (HCC 2998): 25.2 µM (inactive)
- GI50 (HCT-116): 46.6 µM (inactive)
- GI50 (HCT-15): 8.97 µM
- GI50 (HL-60): 14.6 µM (inactive)
- GI50 (HOP-62): 46.6 µM (inactive)
- GI50 (HOP-92): 43.4 µM (inactive)
- GI50 (HT-29): 20 µM (inactive)
- GI50 (Hs-578T): 53 µM (inactive)
- GI50 (IGROV-1): 45.5 µM (inactive)
- GI50 (K562): 31.5 µM (inactive)
- GI50 (KM12): 29.2 µM (inactive)
- GI50 (LOX IMVI): 19.9 µM (inactive)
- GI50 (M14): 19.4 µM (inactive)
- GI50 (MCF7): 29.8 µM (inactive)
- GI50 (MDA-MB-231): 39.9 µM (inactive)
- GI50 (MDA-MB-435): 18.2 µM (inactive)
- GI50 (MDA-N): 24.5 µM (inactive)
- GI50 (MOLT-4): 11.4 µM (inactive)
- GI50 (Malme-3M): 31.7 µM (inactive)
- GI50 (NCI-H226): 98.2 µM (inactive)
- GI50 (NCI-H23): 24.7 µM (inactive)
- GI50 (NCI-H460): 31 µM (inactive)
- GI50 (NCI-H522): 20 µM (inactive)
- GI50 (NCI/ADR-RES): 30.3 µM (inactive)
- GI50 (OVCAR-3): 30 µM (inactive)
- GI50 (OVCAR-4): 18.1 µM (inactive)
- GI50 (OVCAR-5): 27.2 µM (inactive)
- GI50 (OVCAR-8): 37.8 µM (inactive)
- GI50 (PC-3): 18.9 µM (inactive)
- GI50 (RXF 393): 19.9 µM (inactive)
- GI50 (SF-268): 39.4 µM (inactive)
- GI50 (SF-295): 22.3 µM (inactive)
- GI50 (SF-539): 36.6 µM (inactive)
- GI50 (SK-MEL-28): 63.8 µM (inactive)
- GI50 (SK-MEL-2): 21.7 µM (inactive)
- GI50 (SK-MEL-5): 20.7 µM (inactive)
- GI50 (SK-OV-3): 62.8 µM (inactive)
- GI50 (SN12C): 24.5 µM (inactive)
- GI50 (SNB-19): 23.9 µM (inactive)
- GI50 (SNB-75): 21.6 µM (inactive)
- GI50 (SR): 13.1 µM (inactive)
- GI50 (SW-620): 36.4 µM (inactive)
- GI50 (T47D): 14.7 µM (inactive)
- GI50 (TK-10): 50.4 µM (inactive)
- GI50 (U-251): 24.4 µM (inactive)
- GI50 (UACC-257): 29.9 µM (inactive)
- GI50 (UACC-62): 23.4 µM (inactive)
- GI50 (UO-31): 14.3 µM (inactive)
